Square brackets hold non-standard residues; d marks the D form. Peptide text beside a SMILES is read from it. Ala(indol-4-yl) = N[C@@H](Cc1cccc2[nH]ccc12)C(=O)O; NMeR = CN[C@@H](CCCNC(=N)N)C(=O)O; Tle = CC(C)(C)[C@H](N)C(=O)O; Dab = NCC[C@H](N)C(=O)O
How the values were obtained:
[1] = tested on: intact rabbit cornea; assay: In vitro cytotoxicity study, percentage of living cells; assay type: cell-based; conditions: for corneal cells died, compared to untreated cells: 0.1, 0.25 and 0.5 mg/ml, 24 hour period, FIGURE 10B; for death of corneal cells: FIGURE 10A
Procedure: In vitro cytotoxicity studies were performed in intact rabbit cornea. Proparacaine (0.5 mM, 1 mM, 5 mM, and 10 mM), tetracaine (0.5 mM, 1 mM, 5 mM, and 10 mM), NT71 (0.1 mg/ml (0.13 mM), 0.25 mg/ml (0.32 mM), and 0.5 mg/ml (0.63 mM)), NT72 (0.1 mg/ml (0.15 mM), 0.25 mg/ml (0.38 mM), and 0.5 mg/ml (0.76 mM)), and 70% MeOH were added to intact rabbit corneas. The percentage of living cells was determined over a 24 hour period using light microscopy and fluorescence. As apparent from FIGURE 10A, tetracaine was cytotoxic to the corneal cells at concentrations as low as 0.5 mM, resulting in the death of about half of the corneal cells observed.

[2] = tested on: rabbit cornea; assay: In vivo superficial keratotomy, administration every 4 hours for 5 days; parameters: species or system rabbits
Description: Anesthetized rabbits were placed under an operating microscope, a sterile lid speculum placed in the right eye, and a 6.5 mm trephine used to make a partial thickness epithelial cut centered on the pupil. A sterile beaver blade was used to remove the epithelium within the area of demarcation. A single drop of moxifloxacin 0.1% was instilled at the end of the procedure. The speculum was removed and the animal allowed to recover from the systemic anesthesia. The topical agent under investigation was placed in the eye every 4 hours for 5 days. […] The control animals underwent the same surgical procedure. At the end of the procedure, 0.5% proparacaine or vehicle was instilled in the eye every 4 hours.
Fluorescein (1%) was instilled into the eye at times 0, 1, 2, 6, 12, 36, 48, 72, 96, and 120 hours after the procedure and the size of the epithelial defect measured via slit lamp photography. The animals were scored for degree of blinking, tearing, conjunctival injection, anterior chamber inflammation, and intraocular pressure.

[3] = tested on: primary rabbit corneal epithelial cells; assay: In vitro scratch assay, cell migration and scratch closure; assay type: cell-based; conditions: 0.1 mg/ml and 0.5 mg/ml; FIGURES 7-9
Procedure: The limbus was removed from both eyes of anesthetized rabbits and dissected to include 1.0 to 1.5 mm peripheral cornea and 1.0 to 1.5 mm beyond the anatomical limbus. Each limbus was divided into four small segments. Two segments were used for each 60 mm square plate.
Cultured rabbit corneal epithelial cells were utilized to measure the closure of a scratch made in a confluent epithelial monolayer in the presence of varying doses of the test compounds (0.1 mg/ml to 10 mg/ml). Uniform scratches were made in confluent monolayers of primary rabbit corneal epithelial cells ("in vitro scratch assay").
Individual cell migration assays were performed in the presence of the test compounds and compared with standard doses of tetracaine and proparacaine. Movement of cells from the edge of the scratch (wound) toward the middle of the scratch (wound) were measured over 24 hours. […] Cells in which NT71 and NT72 were added migrated at least 40 µm, alternatively at least 50 µm, alternatively at least 60 µm, alternatively at least 70 µm over 24 hours.
There was very little closure of the wounds in which proparacaine and tetracaine were added. […] In contrast, control cells substantially closed the defect within 24 hours.

[4] = tested on: rabbit cornea; assay: In vivo superficial keratotomy, administration every 2 hours for 36 hours; parameters: species or system rabbits
Procedure: In vivo superficial keratotomy experiments were performed on rabbits to access healing effects in an animal model.
Starting with equivalent circular wounds of 6.5 mm diameter (33 mm^2), after 36 hrs of administration every 2 hours of 1 mg/mL NT71(SAR001), NT72 (SAR002), tetracaine or saline (control), the persistent epithelial defect (wound) size was: • Control (saline) 4 mm^2 • Tetracaine 14.4 mm^2 • SAR001 2.8 mm^2 • SAR002 4.8 mm^2

[5] = tested on: rabbit cornea; assay: Wound healing after excimer laser keratectomy; assay type: in vivo, rabbits
Procedure: Anesthetized rabbits were placed under an operating microscope, a sterile lid speculum placed in the right eye, and a 6.5 mm excimer laser ablation of 75 microns centered on the pupil was made using a Ladarvision 4000 excimer laser. A single drop of moxifloxacin 0.1 % was used at the end of the procedure. SAR001 (NT71, 0.1% w/w), SAR002 (NT72, 0.1 % w/w), or NT69 was instilled at the end of the procedure and repeated at 4 hour intervals. Control animals underwent the same surgical procedure. Standard doses of tetracaine (0.5% w/w) or proparacaine (not shown) were instilled at the end of the procedure and at 4 hour intervals thereafter.
Fluorescein (1%) was instilled into the right eye at times 0, 1, 2, 6, 12, 36, 48, 72, 96, and 120 hours after the procedure and the size of the epithelial defect measured via slit lamp photography. Degree of blinking, tearing, conjunctival injection, anterior chamber inflammation, and intraocular pressure were evaluated.

CN[C@@H](CCCNC(=N)N)C(=O)N[C@@H](CCN)C(=O)N1CCC[C@H]1C(=O)N[C@@H](Cc1cccc2[nH]ccc12)C(=O)N[C@H](C(=O)N[C@@H](CC(C)C)C(=O)O)C(C)(C)C [NT71] (H-[NMeR][Dab]P[Ala(indol-4-yl)][Tle]L-OH)
corneal cells died, compared to untreated cells [1]: < 20%

CC(C)C[C@H](NC(=O)[C@@H](NC(=O)[C@H](Cc1cccc2[nH]ccc12)NC(=O)[C@@H]1CCCN1C(=O)[C@H](N)CCCCN)C(C)(C)C)C(=O)O [NT72] (H-[dK]P[Ala(indol-4-yl)][Tle]L-OH)
corneal cells died, compared to untreated cells [1]: < 20%

CCCOc1ccc(C(=O)OCCN(CC)CC)cc1N [proparacaine]
death of corneal cells ([1]; 5 mM): almost all | animals with incomplete disappearance of the defect ([2]; at 96-120 hours, 0.5% proparacaine every 4 hours): 40% | time to disappearance of epithelial defect ([2]; every 4 hours for 5 days, neurotensin analogs 0.6 mg/ml, proparacaine 0.5%): 96 to 120 h | closure of scratch [3]: did not close

CCCCNc1ccc(C(=O)OCCN(C)C)cc1 [tetracaine]
death of corneal cells ([1]; 0.5 mM): about half | death of corneal cells ([1]; 1 mM): almost all | persistent epithelial defect (wound) size ([4]; after 36 hrs, 1 mg/mL every 2 hours, starting wound 33 mm^2): 14.4 mm^2 | state of wound ([4]; after 48 hours): residual epithelial defect was still present | closure of scratch [3]: did not close | rate of scratch closure as compared to control [3]: greatest delay in monolayer closure | time to disappearance of epithelial defect ([5]; instilled at 4 hour intervals, SAR001, SAR002 0.1% w/w, tetracaine 0.5% w/w, FIGURE 11): 96 to 110 h | animals with incomplete disappearance of the defect ([5]; tetracaine 0.5% w/w at 4 hour intervals): 50%

Source: patent EP2131651B1 (Sarentis Therapeutics, Inc., priority 2007, dated 2013)
